Assays:
[1] = molecular target: T1, PcrAB (perchlorate reductase) (Azospira oryzae, UniProt G8QM55); test: steady-state turnover, ion chromatography of perchlorate and Cline assay of sulfide; assay type: biochemical; conditions: H2S as electron donor; 0.2 uM PcrAB; anaerobic
T1 construct: gene Dsui_0149; native PcrAB complex purified anoxically from wild-type PS cells, three-column protocol; periplasmic enzyme; with Perchlorate reductase subunit beta
T1 sequence (G8QM55 29-927): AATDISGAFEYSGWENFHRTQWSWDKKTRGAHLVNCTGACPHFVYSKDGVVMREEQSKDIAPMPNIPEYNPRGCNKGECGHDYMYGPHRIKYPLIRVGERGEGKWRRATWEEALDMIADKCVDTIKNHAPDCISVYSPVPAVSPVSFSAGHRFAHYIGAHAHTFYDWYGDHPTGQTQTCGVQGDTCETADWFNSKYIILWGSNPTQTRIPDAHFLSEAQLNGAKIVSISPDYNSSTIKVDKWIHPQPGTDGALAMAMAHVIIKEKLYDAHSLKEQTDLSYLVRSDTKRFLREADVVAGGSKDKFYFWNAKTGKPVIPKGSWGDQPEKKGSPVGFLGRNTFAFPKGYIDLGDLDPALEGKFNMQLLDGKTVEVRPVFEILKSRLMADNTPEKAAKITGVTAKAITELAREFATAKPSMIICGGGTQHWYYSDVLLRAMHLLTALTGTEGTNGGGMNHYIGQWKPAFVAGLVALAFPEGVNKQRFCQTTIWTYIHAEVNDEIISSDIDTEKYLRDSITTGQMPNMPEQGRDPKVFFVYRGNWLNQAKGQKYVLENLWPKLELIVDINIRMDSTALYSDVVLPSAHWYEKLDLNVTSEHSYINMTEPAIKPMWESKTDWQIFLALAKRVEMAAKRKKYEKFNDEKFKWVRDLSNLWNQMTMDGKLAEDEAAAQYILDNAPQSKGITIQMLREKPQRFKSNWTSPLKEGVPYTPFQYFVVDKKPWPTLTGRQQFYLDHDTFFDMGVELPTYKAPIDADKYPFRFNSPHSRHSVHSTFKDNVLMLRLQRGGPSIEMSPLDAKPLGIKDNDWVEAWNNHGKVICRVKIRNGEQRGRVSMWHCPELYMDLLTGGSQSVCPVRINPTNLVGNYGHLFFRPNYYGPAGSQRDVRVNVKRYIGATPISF
T1 sequence (G8QM54 1-333 partner): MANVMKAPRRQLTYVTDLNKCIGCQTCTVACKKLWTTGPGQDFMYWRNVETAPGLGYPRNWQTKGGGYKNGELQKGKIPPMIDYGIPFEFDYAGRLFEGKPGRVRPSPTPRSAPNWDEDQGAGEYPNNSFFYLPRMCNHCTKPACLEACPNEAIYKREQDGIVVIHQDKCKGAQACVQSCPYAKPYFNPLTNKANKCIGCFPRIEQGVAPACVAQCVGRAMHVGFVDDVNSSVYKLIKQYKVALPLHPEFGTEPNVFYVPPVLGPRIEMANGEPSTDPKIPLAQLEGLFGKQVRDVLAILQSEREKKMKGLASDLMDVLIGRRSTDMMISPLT

[2] = molecular target: T1, PcrAB (perchlorate reductase); test: steady-state turnover, Cline assay of sulfide; assay type: biochemical; conditions: H2S as electron donor; 0.2 uM PcrAB; anaerobic

**Q.** For `[O-][Cl+3]([O-])([O-])O` [perchlorate], which “steady-state turnover, ion chromatography of perchlorate and Cline assay of sulf” value [1] is on record?
**A.** The value was “Our results indicated that PcrAB independently mediated PSOX”.

**Q.** With `O=[N+]([O-])O` [nitrate] as the compound, how does the “steady-state turnover, Cline assay of sulfide” value [2] read?
**A.** Its value is “purified PcrAB also mediated H2S oxidation coupled to nitrate reduction”.

From paper PMC5358917, “Mechanism of H2S Oxidation by the Dissimilatory Perchlorate-Reducing Microorganism Azospira suillum PS” (mBio, 2017)
